Source: US4238472A, “Radioimmunoassay for chlorinated dibenzo-p-dioxins” (priority 1978, dated 1980)

Columns and labels:
antiserum F-12 = test: Specificity / cross reactivity of the radioimmunoassay, antiserum F-12; assay type: binding, rabbit; conditions: for Percentage Reactivity (inhibition of 125I binding relative to inhibition by 5 ng of 2,3,7,8-TCDD): "Cutscum"
From the text: (§1) Since TCDD itself has no chemically reactive functional groups, a derivative was synthesized that retained most of the structural features of TCDD but with the addition of a reactive site. This derivative was coupled to an immunogenic protein carrier, such as bovine serum albumin, rabbit serum albumin, etc., so that animals would respond to it by producing an antiserum containing antibodies. A second compound was synthesized, still structurally similar to TCDD so that it would bind to the antibodies, but capable of being labeled with ^125 I for detectability at the picogram level. An amount of antiserum capable of binding about 20 pg of ^125 I-labeled dioxin derivative (hapten) is preincubated with the detergent emulsion of the sample extract (possibly containing TCDD). Then the mixture is incubated with the ^125 I-labeled derivative long enough for equilibrium binding to occur and form the hapten-antibody complex. A second antibody, namely, goat antibodies against rabbit gamma-globulin (i.e., goat anti-rabbit γ-globulin) are then added to precipitate the antibody ^125 I-labeled dioxin complex, and the amount of ^125 I in the precipitate is determined. The extent to which preincubation with the test material inhibits or decreases the amount of ^125 I precipitated relative to the amount precipitated in the absence of test material is a measure of the amount of chlorodibenzodioxin in the test sample.
(§2) Radioimmunoassay of small molecules requires some means of separating free hapten from antibody-bound hapten. The procedure used in the present invention, chosen because of its compatibility with detergent-solubilized hapten, involved precipitating the antibody-hapten complex with a second antibody, namely, goat antibodies against rabbit gamma-globulin. In this assay chlorodibenzodioxin from the environmental sample completes with the ^125 I-labeled hapten for binding to the antibody. Thus, the decrease in precipitation of radioactivity is a measure of the amount of (unlabeled) hapten in the test sample.
(§3) The assay buffer (hereinafter referred to as "PBS") contained, per liter, 20 mmol of potassium phosphate, 140 mmol of NaCl, and 200 mg of sodium azide. The pH was adjusted to 7.3 with NaOH. Antiserum was diluted with PBS also containing 0.1% bovine gamma globulin and 0.02% rabbit gamma globulin (w/v). Each assay tube from procedure G above received 0.2 ml of PBS, after which the tubes were held in the sonicator for 40 minutes and then cooled to room temperature. Appropriately diluted antiserum or, as control, antiserum diluant was added (0.2 ml) and, after vortex-mixing, the tubes were incubated for 40 minutes at 37°. 14000 disintegrations per minute (hereafter referred to as "DPM") or 7000 counts per minute (hereinafter referred to as "CPM", which equals DPM×counting efficiency) of [^125 I]-iodovaleramide derivative of trichlorodibenzo-p-dioxin in PBS containing 1% "Cutscum" were then added to each tube (approximately 10 μl), vortex mixed, and the tubes incubated for 1 hour at 37° followed by an additional 65 hours of incubation at 4°. Each tube next received 1.24 units of goat anti-rabbit gamma globulin in 0.2 ml of PBS containing 0.05 mM ethylenediamine tetracetic acid (hereinafter referred to as "EDTA"), was vortex mixed, and incubated for 5 hours at 4°. The tubes were centrifuged at 500×g for 20 minutes at 4°. The supernates were poured off and the tubes allowed to drain into Whatman #3 MM paper for 10 minutes. The precipitate or pellets obtained were then radioassayed for ^125 I, with 10 minute count cycles.
(§4) Standard curves were prepared using sequential two-fold dilutions of TCDD or other test compounds in benzene and evaporating the solvent as described above. Both control (blank) and TCDD-spiked tissues were extracted and processed as described above to determine general interference and recoveries. All samples were run in triplicate. […]

antiserum GC-5 = test: Cross reactivity in chlorinated DBD radioimmunoassay, antiserum GC-5; assay type: binding, rabbit; conditions: for maximum inhibition of binding of 125I-labeled hapten: GC-5 diluted such that 33% of the label was bound in the absence of competitors
From the text: as §1, §2, §3, §4

[1] = in vivo; cited from earlier work
[2] = tested on: anti-chlorinated dibenzodioxin serum (antisera GC-5 and F-12); test: Double-antibody radioimmunoassay, both antisera (general cross reactivity, interference and sensitivity); assay type: binding, rabbit; conditions: for cross reactivity of the three dichlorodibenzo-p-dioxins: 5 ng level; for activity v concentration curve slope: both antisera
From the text: as §1, §2, §3, §4

Structure (SMILES) | Cross Reactivity, Antiserum F-12: 100 × (inhibition of 125I binding by 4 pmole of test compound)/(inhibition by 4 pmole of 2,3,7,8-TCDD) (antiserum F-12) [%] | Cross Reactivity, Antiserum GC-5: 100 × (inhibition of 125I binding by 4 pmole of test compound)/(inhibition by 4 pmole of 2,3,7,8-TCDD) (antiserum GC-5) [%] | other results
Clc1cc2c(cc1Cl)Oc1c(Cl)c(Cl)c(Cl)c(Cl)c1O2 [1,2,3,4,7,8-Cl6 Dibenzo-p-Dioxin] | 9 | 99 | 
Clc1c(Cl)c(Cl)c2c(c1Cl)Oc1ccccc1O2 [1,2,3,4-Cl4 Dibenzo-p-Dioxin, 1,2,3,4-tetrachloro DBD] | < 1 | 20 | maximum inhibition of binding of 125I-labeled hapten (antiserum GC-5): up to 18%
Clc1cc2c(c(Cl)c1Cl)Oc1cc(Cl)c(Cl)c(Cl)c1O2 [1,2,3,6,7,8-Cl6 Dibenzo-p-Dioxin] | 9 | 99 | toxicity relative to TCDD [1]: toxicities comparable to that of TCDD
Clc1cc2c(c(Cl)c1Cl)Oc1c(cc(Cl)c(Cl)c1Cl)O2 [1,2,3,7,8,9-hexachlorodibenzo-p-dioxin] |  |  | effective competition in the assay (predicted) (antiserum F-12; if available for testing): effective competitor; toxicity relative to TCDD [1]: toxicities comparable to that of TCDD
Clc1cc2c(cc1Cl)Oc1c(Cl)c(Cl)cc(Cl)c1O2 [1,2,4,7,8-Cl5 Dibenzo-p-Dioxin] | 36 | 76 | 
Clc1cc(Cl)c2oc3cc(Cl)c(Cl)cc3c2c1 [2,3,6,8-Cl4 Dibenzofuran] | 40 | 6 | 
Brc1cc2oc3cc(Br)c(Br)cc3c2cc1Br [2,3,7,8-Br4 Dibenzofuran] | 46 |  | 
Clc1ccc2c(c1)Oc1cc(Cl)c(Cl)cc1O2 [2,3,7-Cl3 Dibenzo-p-Dioxin] | 77 | 73 | 
Clc1ccc2oc3cc(Cl)c(Cl)cc3c2c1 [2,3,8-Cl3 Dibenzofuran] |  | 2 | 
Clc1cc2c(cc1Cl)Oc1ccccc1O2 [2,3-Cl2 Dibenzo-p-Dioxin, 2,3-dichloro DBD] | 16 | 44 | binding by the antibodies in GC-5 (antiserum GC-5): only a portion bind 2,3-dichloro DBD; maximum inhibition of binding of 125I-labeled hapten (antiserum GC-5): 55%; cross reactivity of the three dichlorodibenzo-p-dioxins [2]: very similar in their cross reactivity; activity v concentration curve slope [2]: steepest sloop
Clc1cc(Cl)c(-c2cc(Cl)c(Cl)cc2Cl)cc1Cl [2,4,5,2',4',5'-HCBP] |  |  | Percentage Reactivity (inhibition of 125I binding relative to inhibition by 5 ng of 2,3,7,8-TCDD) (antiserum F-12; highest amount tested 100 ng): 0%
O=C(O)COc1cc(Cl)c(Cl)cc1Cl [2,4,5-T (Commercial), 2,4,5-trichlorophenoxyacetic acid] |  |  | Percentage Reactivity (inhibition of 125I binding relative to inhibition by 5 ng of 2,3,7,8-TCDD) (antiserum F-12; highest amount tested 10 μg): 37%
Clc1cccc(Cl)c1-c1c(Cl)cccc1Cl [2,6,2',6'-TCBP] |  |  | Percentage Reactivity (inhibition of 125I binding relative to inhibition by 5 ng of 2,3,7,8-TCDD) (antiserum F-12; highest amount tested 200 ng): 0%
Clc1ccc2c(c1)Oc1ccc(Cl)cc1O2 [2,7-Cl2 Dibenzo-p-Dioxin] | 20 | 56 | cross reactivity of the three dichlorodibenzo-p-dioxins [2]: very similar in their cross reactivity
O=C1OC2(c3cc(Cl)c(O)cc3Oc3cc(O)c(Cl)cc32)c2ccccc21 [2,7-Dichlorofluorescein] |  |  | Percentage Reactivity (inhibition of 125I binding relative to inhibition by 5 ng of 2,3,7,8-TCDD) (antiserum F-12; highest amount tested 200 ng): 0%
Clc1ccc2c(c1)Oc1cc(Cl)ccc1O2 [2,8-Cl2 Dibenzo-p-Dioxin] | 17 | 52 | cross reactivity of the three dichlorodibenzo-p-dioxins [2]: very similar in their cross reactivity; activity v concentration curve slope [2]: most shallow slope
Clc1ccc2oc3ccc(Cl)cc3c2c1 [2,8-Cl2 Dibenzofuran] |  | 12 | 

Structure (SMILES) | Cross Reactivity, Antiserum F-12: 100 × (inhibition of 125I binding by 4 pmole of test compound)/(inhibition by 4 pmole of 2,3,7,8-TCDD) (antiserum F-12) [%] | Cross Reactivity, Antiserum GC-5: 100 × (inhibition of 125I binding by 4 pmole of test compound)/(inhibition by 4 pmole of 2,3,7,8-TCDD) (antiserum GC-5) [%] | other results
Clc1ccc(-c2ccc(Cl)c(Cl)c2)cc1Cl [3,4,3',4'-TCBP, 3,4,3'4'-tetrachlorobiphenyl] |  |  | Percentage Reactivity (inhibition of 125I binding relative to inhibition by 5 ng of 2,3,7,8-TCDD) (antiserum F-12; highest amount tested 5 ng): 6%
Clc1ccc(Oc2ccc(Cl)c(Cl)c2)cc1Cl [3,4,3',4'-TCBPE] |  |  | Percentage Reactivity (inhibition of 125I binding relative to inhibition by 5 ng of 2,3,7,8-TCDD) (antiserum F-12; highest amount tested 200 ng): 0.1%
Clc1cc(-c2cc(Cl)c(Cl)c(Cl)c2)cc(Cl)c1Cl [3,4,5,3',4',5'-HCBP] |  |  | Percentage Reactivity (inhibition of 125I binding relative to inhibition by 5 ng of 2,3,7,8-TCDD) (antiserum F-12; highest amount tested 100 ng): 0%
Clc1cc(Cl)cc(-c2cc(Cl)cc(Cl)c2)c1 [3,5,3',5'-TCBP] |  |  | Percentage Reactivity (inhibition of 125I binding relative to inhibition by 5 ng of 2,3,7,8-TCDD) (antiserum F-12; highest amount tested 100 ng): 0%
O=C1c2ccccc2-c2ccccc21 [9-Fluorenone] |  |  | Percentage Reactivity (inhibition of 125I binding relative to inhibition by 5 ng of 2,3,7,8-TCDD) (antiserum F-12; highest amount tested 100 ng): 0%
c1ccc2cc3ccccc3cc2c1 [Anthracene] |  |  | Percentage Reactivity (inhibition of 125I binding relative to inhibition by 5 ng of 2,3,7,8-TCDD) (antiserum F-12; highest amount tested 100 ng): 0%
CCCCCCCC/C=C\CCCCCCCC(=O)O[C@H]1CC[C@@]2(C)C(=CC[C@H]3[C@@H]4CC[C@H]([C@H](C)CCCC(C)C)[C@@]4(C)CC[C@@H]32)C1 [Cholesterol Oleate] |  |  | Percentage Reactivity (inhibition of 125I binding relative to inhibition by 5 ng of 2,3,7,8-TCDD) (antiserum F-12; highest amount tested 100 μg): 0%
ClC(Cl)=C(c1ccc(Cl)cc1)c1ccc(Cl)cc1 [DDE] |  |  | Percentage Reactivity (inhibition of 125I binding relative to inhibition by 5 ng of 2,3,7,8-TCDD) (antiserum F-12; highest amount tested 400 ng): 0%
CCCCC(CC)COC(=O)c1ccccc1C(=O)OCC(CC)CCCC (stereo not drawn) [DEHP, di(2-ethylhexyl) phthalate] |  |  | Percentage Reactivity (inhibition of 125I binding relative to inhibition by 5 ng of 2,3,7,8-TCDD) (antiserum F-12; highest amount tested 100 μg): 0%
Clc1c(Cl)c(Cl)c2c(c1Cl)Oc1c(Cl)c(Cl)c(Cl)c(Cl)c1O2 [Octachloro Dibenzo-p-Dioxin] | 8 | 100 | 
Clc1c(Cl)c(Cl)c2c(oc3c(Cl)c(Cl)c(Cl)c(Cl)c32)c1Cl [Octachloro Dibenzofuran] | 8 | 14 | 
Oc1c(Cl)c(Cl)c(Cl)c(Cl)c1Cl [Pentachlorophenol] |  |  | Percentage Reactivity (inhibition of 125I binding relative to inhibition by 5 ng of 2,3,7,8-TCDD) (antiserum F-12; highest amount tested 10 μg): 0%
CCCCC(CC)COC(=O)c1c(Cl)c(Cl)c(Cl)c(Cl)c1C(=O)OCC(CC)CCCC (stereo not drawn) [Tetrachloro DEHP] |  |  | Percentage Reactivity (inhibition of 125I binding relative to inhibition by 5 ng of 2,3,7,8-TCDD) (antiserum F-12; highest amount tested 200 ng): 0.1%
c1ccc2c(c1)Oc1ccccc1O2 [Unchlorinated Dibenzo-p-Dioxin, Unchlorinated dibenzo-p-dioxin] | < 1 | 4 | cross reactivity in words ([2]; either antiserum): very little cross relativity
c1ccc2c(c1)oc1ccccc12 [Unchlorinated Dibenzofuran] | < 1 | 2.5 | 
CC(=O)Oc1c(C)c(C)c2c(c1C)CCC(C)(CCCC(C)CCCC(C)CCCC(C)C)O2 (stereo not drawn) [α-Tocopherol Acetate] |  |  | Percentage Reactivity (inhibition of 125I binding relative to inhibition by 5 ng of 2,3,7,8-TCDD) (antiserum F-12; highest amount tested 200 ng): 0%
